According to patent US7468385B2, “Triazoles as oxytocin antagonists” (Laboratoires Serono SA, priority 2001, dated 2008):

Key:
hOT receptor = molecular target: T1, hOT receptor (Homo sapiens, UniProt P30559); assay: Inhibition of oxytocin mediated Ca2+-mobilization by FLIPR in HEK293EBNA cells expressing the hOT receptor; format: cell-based; conditions: OT 40 nM, fluo-4 FLIPR, read-out: Inhibition of Ca2+ mobilisation, hOT-R IC50
T1 construct: expressed in transfected cells; host or cells: HEK293EBNA
T1 sequence (P30559 1-389): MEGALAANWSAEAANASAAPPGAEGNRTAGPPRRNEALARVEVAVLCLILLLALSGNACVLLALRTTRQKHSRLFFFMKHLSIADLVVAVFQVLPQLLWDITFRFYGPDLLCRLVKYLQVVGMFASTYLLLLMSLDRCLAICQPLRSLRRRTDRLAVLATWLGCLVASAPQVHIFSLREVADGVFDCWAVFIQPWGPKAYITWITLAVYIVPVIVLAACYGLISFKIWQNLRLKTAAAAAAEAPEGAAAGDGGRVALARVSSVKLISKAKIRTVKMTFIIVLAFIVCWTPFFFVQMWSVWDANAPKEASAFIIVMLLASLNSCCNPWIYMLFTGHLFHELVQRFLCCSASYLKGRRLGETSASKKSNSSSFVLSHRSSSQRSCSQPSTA
Excerpt: c) Functional Assay No. 1: Inhibition of Oxytocin Mediated Ca^2+-mobilization by FLIPR® (Fluorimetric Imaging Plate Reader)
The action of OT on the OT-receptor triggers a complex cascade of events in the cell which leads to an increase in the intra-cytoplasmic Ca^2+ concentration. This increase in Ca^2+ concentration results from both calcium release from the sarcoplasmic reticulum (calcium stores) into the cytoplasm and from calcium influx from the extracellular space through Ca^2+ channels. This Ca^2+ mobilization into the cytoplasm triggers the contractile machinery of the myometrial cells which leads to uterine contractions (4 and 19).
This assay allows the measurement of the inhibition of OT/OT-R mediated calcium mobilization by test compounds of formula (1).
FLIPR® is a fluorimetric imaging device using a laser (Argon-ion laser) for simultaneous illumination and reading (cooled CCD camera) of each well of a 96-well-plate, thus enabling rapid measurements on a large number of samples.
Preparing the plates: FLIPR-plates were pre-coated with PLL (Poly-L-Lysine) 10 μg/ml+0.1% gelatine to attach HEK293EBNA cells (Human Embryonic Kidney cells expressing the hOT receptor) and incubated for 30 min up to 2 days at 37° C. The cells were plated out into 96-well-plates (60000 cells/well).
Labelling with fluo-4: 50 μg of fluo-4 (Ca2+ sensitive fluorescent dye) were dissolved in 20 μl pluronic acid (20% in DMSO). The dissolved fluo-4 was then diluted in 10 ml DMEM ([…])-F12 culture medium. […]
The relative fluorescence of Fluo (λex=488 nm, λem=590 nm) is then measured by the FLIPR in presence or absence of compounds of formula (I). The fluorescence of the marker being sensitive to the amount of Ca^2+, the Ca^2+ movements can be detected. Then, it can be determined the ability of compounds of formula (I) to antagonize the oxytocin-induced intracellular Ca^2+-mobilization mediated by the oxytocin receptor.
The activities of the triazole derivatives according to formula I were assessed using the above described in vitro biological assay. […]

[1] = molecular target: T2, human Oxytocin (hOT) receptor (Homo sapiens, UniProt P30559); assay: In vitro competition binding assay on hOT receptor with scintillation proximity assay ([125I]-OVTA); conditions: inhibition of 125I-OVTA binding; membranes from HEK293EBNA cells expressing the hOT receptor; read-out: Binding Affinity hOT-R (Ki)
T2 construct: expressed in transfected cells; host or cells: HEK293EBNA (membranes)
T2 sequence (P30559 1-389): T1 sequence (P30559 1-389)
Protocol: a) In vitro Competition Binding Assay on hOT Receptor with Scintillation Proximity Assay (18).
This assay allows to determine the affinity of the test compounds for the human Oxytocin (hOT) receptor. Membranes from HEK293EBNA (cells expressing the hOT receptor) were suspended in buffer containing 50 mM Tris-HCl, pH 7.4, 5 mM MgCl2 and 0.1% BSA (w/v). The membranes ([…]) were mixed with 0.1 mg SPA bead coated with wheat-germ aglutinin (WGA-PVT-Polyethylene Imine beads from Amersham) and […] of the radiolabelled [^125I]-OVTA (OVTA being Omithin Vasoactive, an analogue of OT for competitive binding experiments). Non-specific binding was determined in the presence of 1 μM Oxytocin. The total assay volume was 100 μL. The plates (Corning® NBS plate) were incubated at room temperature for 30 min and counted on a Mibrobeta® plate scintillation counter. Competitive binding was performed in presence of compounds of formula (1) at the following concentrations: 30 μM, 10 μM, 1 μM, 300 nM, 100 nM 10 nM, 1 nM, 100 pM, 10 pM. The competitive binding data were analysed using the iterative, nonlinear, curve-fitting program, “Prism” (GraphPad Software, Inc).
The ability of triazole derivatives of formula (I) to inhibit the binding of ^125I-OVTA to the OT-receptor was assessed using the above described in vitro biological assay. Representative values for some example compounds are given in Table 3 where the binding affinity of the compounds is expressed by the inhibition constant (Ki; μM). From these values, it can be derived that said test compounds according to formula I do show a significant binding to the oxytocin receptor.

[2] = tested on: oxytocin-induced uterine contractions; assay: In vivo model for inhibition of oxytocin-induced uterine contractions; parameters: species or system rat; conditions: dose 10 mg/kg, anaesthetised DES-treated non-pregnant female rats
Protocol: f) In vivo Model for Inhibition of Uterine Contractions
The assay evaluates the biological effect of tested compounds in an in vivo model of preterm labor, premature birth.
Non-pregnant Charles River CD (SD) BR female rats (9-10 weeks old, 200-250 g) were treated at 18 and 24 hours before the experiment with 250 μg/kg, i.p. diethylstilbestrol (DES). For the assay, the animal was anaesthetised with urethane (1.75 g/kg, i.p.) and placed on a homeothermic operating table. The trachea was isolated and cannulated with a suitable polyethylene (PE) tubing. A midline incision at the hypogastrium level was made and one uterine horn exposed, its cephalic end cannulated with a PE240 tubing and, after filling the internal cavity with 0.2 ml of sterile physiological saline, connected to a “Gemini” amplifying/recording system via a P23ID Gould Statham pressure transducer. […]
The contractile response of the uterus to oxytocin was quantified by measuring the intra-uterine pressure and the number of contractions. The effect of the reference and test compounds was evaluated by comparing pre- and post-treatment pressure values. […]
The activities of the triazole derivatives claimed in the Formula I can be assessed using the above described in vivo biological assay. […]

Compound	IC50 (hOT receptor) [nM]	Ki [1] [nM]	% Reduction of Uterine Contraction [2] [%]
COc1cccc(-n2c(CCC(=O)NCc3ccccc3OC)nnc2SCc2cccc(Cl)c2)c1 [Example 1, 3-[5-[(3-chlorobenzyl)sulfanyl]-4-(3-methoxyphenyl)-4H-1,2,4-triazol-3-yl]-N-(2-methoxybenzyl)propanamide]	26	45	16.9 ± 5.1
COc1ccccc1CNC(=O)CCc1nnc(SCc2cccc(F)c2)n1-c1ccc(C)cc1 [Example 5, 3-[5-[(3-fluorobenzyl)sulfanyl]-4-(4-methylphenyl)-4H-1,2,4-triazol-3-yl]-N-(2-methoxybenzyl)propanamide]		127	
COc1ccccc1CNC(=O)CCCCc1nnc(SCc2cccc(C)c2)n1CCc1ccccc1 [Example 189, N-(2-methoxybenzyl)-5-[5-[(3-methylbenzyl)sulfanyl]-4-(2-phenylethyl)-4H-1,2,4-triazol-3-yl]pentanamide]		515	
COCCCn1c(CCC(=O)NCc2ccccc2OC)nnc1SCc1cccc(Cl)c1 [Example 4, 3-[5-[(3-chlorobenzyl)sulfanyl]-4-(3-methoxypropyl)-4H-1,2,4-triazol-3-yl]-N-(2-methoxybenzyl)propanamide]		326	
COc1ccccc1CNC(=O)CCc1nnc(SCc2ccccc2)n1-c1cccc(Cl)c1 [Example 12, 3-[5-(benzylsulfanyl)-4-(3-chlorophenyl)-4H-1,2,4-triazol-3-yl]-N-(2-methoxybenzyl)propanamide]		439	
COc1ccccc1CNC(=O)CCCCc1nnc(SCc2cccc(Cl)c2)n1-c1cccc(Cl)c1 [Example 184, 5-[5-[(3-chlorobenzyl)sulfanyl]-4-(3-chlorophenyl)-4H-1,2,4-triazol-3-yl]-N-(2-methoxybenzyl)pentanamide]		481	
COc1ccccc1CNC(=O)CCc1nnc(SCc2cccc(Cl)c2)n1-c1cccc(C)c1 [Example 8, 3-[5-[(3-chlorobenzyl)sulfanyl]-4-(3-methylphenyl)-4H-1,2,4-triazol-3-yl]-N-(2-methoxybenzyl)propanamide]		229	
COc1ccccc1CNC(=O)CCc1nnc(SCc2ccccc2)n1-c1ccc(C)cc1 [Example 9, 3-[5-(benzylsulfanyl)-4-(4-methylphenyl)-4H-1,2,4-triazol-3-yl]-N-(2-methoxybenzyl)propanamide]		205	
COc1ccccc1CNC(=O)CCc1nnc(SCc2cccc(C)c2)n1Cc1ccc(C)cc1 [Example 6, N-(2-methoxybenzyl)-3-{4-(4-methylbenzyl)-5-[(3-methylbenzyl)sulfanyl]-4H-1,2,4-triazol-3-yl}propanamide]		246	
COc1ccccc1CNC(=O)CCCc1nnc(SCc2cccc(Cl)c2)n1-c1ccccc1 [Example 137, 4-{5-[(3-chlorobenzyl)sulfanyl]-4-phenyl-4H-1,2,4-triazol-3-yl}-N-(2-methoxybenzyl)butanamide]	486	2550	
COc1ccccc1CNC(=O)CCc1nnc(SCc2ccc(F)cc2)n1-c1cccc(Cl)c1 [Example 11, 3-{4-(3-chlorophenyl)-5-[(4-fluorobenzyl)sulfanyl]-4H-1,2,4-triazol-3-yl}-N-(2-methoxybenzyl)propanamide]		329	
COc1cccc(-n2c(CCC(=O)NCc3ccccc3OC)nnc2SCc2cccc(C)c2)c1 [Example 16, N-(2-methoxybenzyl)-3-{4-(3-methoxyphenyl)-5-[(3-methylbenzyl)sulfanyl]-4H-1,2,4-triazol-3-yl}propanamide]		197	
CCCCNC(=O)CCc1nnc(SCc2cccc(Cl)c2)n1-c1cccc(Cl)c1 [Example 15, N-butyl-3-[5-[(3-chlorobenzyl)sulfanyl]-4-(3-chlorophenyl)-4H-1,2,4-triazol-3-yl]propanamide]		245	
COc1ccccc1CNC(=O)CCc1nnc(SCc2cccc(C)c2)n1-c1cccc(Cl)c1 [Example 3, 3-{4-(3-chlorophenyl)-5-[(3-methylbenzyl)sulfanyl]-4H-1,2,4-triazol-3-yl}-N-(2-methoxybenzyl)propanamide]		134	
COc1ccccc1CNC(=O)CCCCc1nnc(SCc2cccc(Cl)c2)n1-c1ccccc1 [Example 185, 5-{5-[(3-chlorobenzyl)sulfanyl]-4-phenyl-4H-1,2,4-triazol-3-yl}-N-(2-methoxybenzyl)pentanamide]	58	603	
